Source: article PMC12956279 (2026)

Experiments:
Test in all cases: in-gel dye staining after TBE-urea PAGE
Settings in all cases: 100 mM KCl, 1 mM MgCl2; 40 mM HEPES pH 7.5, 10 µM dye; very low fluorescence
[1] = tested on: 4LE-v2 (DNA, aptamer) TCCTTCGCACAGCACACCTGCCGTATTAGTAGGGATGATGCGGCAGTGGGCTTCGCAGAACAGTGTTTATTCTGCGAGGGGACTAAGCTCTGAATCAAGGATTTTAGGGAGGCGATTCCTCCTGCC
[2] = tested on: 4LE-v1 (DNA, aptamer) TCCTTCGCACAGCACATAGTAGGGATGATGCGGCAGTGGGCTTCGCAGAACAGTGTTTATTCTGCGAGGGGACTACCTGCCGTATAGCTCTGAATCAAGGATTTTAGGGAGGCGATTCCTCCTGCC
[3] = tested on: 4LE-v3 (DNA, aptamer) TCCTTCGCACAGCACACCTGCCGTATAGCTCTGAATCAATAGTAGGGATGATGCGGCAGTGGGCTTCGCAGAACAGTGTTTATTCTGCGAGGGGACTAGGATTTTAGGGAGGCGATTCCTCCTGCC

Measured: binding

CC1=N/C(=C\c2cc(F)c(O)c(F)c2)C(=O)N1CC(F)(F)F
weak: all assays above
